The source of these data is patent US8420851B2, “Selective TR-β 1 agonist” (Cadila Healthcare Limited, priority 2006, dated 2013).

The target in one series is T1, TR-α (Homo sapiens, UniProt P10827).
T1 sequence (P10827 1-410 isoform P10827-2): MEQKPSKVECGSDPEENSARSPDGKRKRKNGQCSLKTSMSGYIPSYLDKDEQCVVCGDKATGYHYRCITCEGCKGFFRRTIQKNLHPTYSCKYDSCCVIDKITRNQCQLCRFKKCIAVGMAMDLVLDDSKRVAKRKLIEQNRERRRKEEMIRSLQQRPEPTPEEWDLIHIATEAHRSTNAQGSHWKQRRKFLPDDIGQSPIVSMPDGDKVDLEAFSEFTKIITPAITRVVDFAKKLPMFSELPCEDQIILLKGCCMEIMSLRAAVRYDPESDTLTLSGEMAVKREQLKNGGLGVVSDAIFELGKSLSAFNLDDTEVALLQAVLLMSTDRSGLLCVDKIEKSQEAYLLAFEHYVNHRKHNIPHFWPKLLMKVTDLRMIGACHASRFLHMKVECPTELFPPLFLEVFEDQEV
The series is described as follows: In vitro TR-α activity (in-house protocol). Type of series: cell-based. On the procedure: (§1) Invitro TR-α & TR-β activities were determined as per in-house protocols and the results of representative compounds are provided in tables 1 & 2 below as a proof of the efficacies of the novel class of compounds disclosed above.

A further series concerns the target T2, TR-β (Homo sapiens, UniProt P10828).
T2 sequence (P10828 1-461): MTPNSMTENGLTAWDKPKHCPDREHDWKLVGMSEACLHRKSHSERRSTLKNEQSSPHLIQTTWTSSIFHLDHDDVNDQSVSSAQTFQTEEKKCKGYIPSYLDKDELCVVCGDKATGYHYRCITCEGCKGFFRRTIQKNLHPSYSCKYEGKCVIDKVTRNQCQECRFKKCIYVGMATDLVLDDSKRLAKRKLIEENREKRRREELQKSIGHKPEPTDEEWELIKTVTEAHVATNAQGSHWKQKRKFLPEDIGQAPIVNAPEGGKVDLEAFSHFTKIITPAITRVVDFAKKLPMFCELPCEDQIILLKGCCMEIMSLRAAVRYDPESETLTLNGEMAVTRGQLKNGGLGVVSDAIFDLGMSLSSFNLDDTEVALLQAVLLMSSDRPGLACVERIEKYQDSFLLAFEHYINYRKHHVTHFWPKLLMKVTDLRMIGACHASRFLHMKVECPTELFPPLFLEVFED
The series is described as follows: In vitro TR-β activity (in-house protocol). It counts as cell-based. As to conditions: for fold induction at 0.001 µM: Conc. 1 nM; for fold induction at 0.001 µM / fold induction at 0.01 µM / fold induction at 0.1 µM / fold induction at 1 µM: read-out: TR-β Fold Induction w.r.t T3(100 nm); for fold induction at 0.01 µM: Conc. 10 nM; for fold induction at 0.1 µM: Conc. 100 nM; for fold induction at 1 µM: Conc. 1000 nM. The protocol: as §1

As to `CC(C)(C)c1cc(Oc2c(Cl)cc(N(CC(=O)O)C(=O)Oc3ccc(O)cc3)cc2Cl)ccc1O` [Example 35, [[4-(3-tert-Butyl-4-hydroxy-phenoxy)-3,5-dichloro-phenyl]-(4-hydroxy-phenoxycarbonyl)-amino]-acetic acid], the “TR-α Fold Induction w.r.t T3(100 nm)” value was determined as 25.40 on TR-α (Conc. 1 nM), 106.00 at TR-α (Conc. 10 nM), 130.68 at TR-α (Conc. 100 nM) and 72.06 at TR-α (Conc. 1000 nM). For the same compound, the fold induction at 0.001 µM on TR-β was 22.4. Also, the fold induction at 0.01 µM at TR-β turned out to be 80.5. The fold induction at 0.1 µM on TR-β came out at 125. Further, the fold induction at 1 µM on TR-β is 81.3.

In the case of `Cc1cc(N(CC(=O)O)C(=O)Oc2ccc(O)cc2)cc(C)c1Oc1ccc(O)c(C(C)C)c1` [Example 42, [[4-(4-Hydroxy-3-isopropyl-phenoxy)-3,5-dimethyl-phenyl]-(4-hydroxy-phenoxycarbonyl)-amino]-acetic acid], the “TR-α Fold Induction w.r.t T3(100 nm)” value at TR-α (Conc. 1 nM) was 11.05. Besides, at TR-α (Conc. 10 nM), the “TR-α Fold Induction w.r.t T3(100 nm)” value came out at 26.63. The “TR-α Fold Induction w.r.t T3(100 nm)” value on TR-α (Conc. 100 nM) worked out at 72.96. Further, the “TR-α Fold Induction w.r.t T3(100 nm)” value at TR-α (Conc. 1000 nM) came out at 80.89. At TR-β, the fold induction at 0.001 µM was 12.9, the fold induction at 0.01 µM worked out at 41.4, the fold induction at 0.1 µM amounted to 91.9 and the fold induction at 1 µM is 86.

On to `O=C(O)CN(C(=O)Oc1ccc(O)cc1)c1cc(Cl)c(Oc2ccc(O)c(Cc3ccccc3)c2)c(Cl)c1` [Example 50, [[4-(3-Benzyl-4-hydroxy-phenoxy)-3,5-dichloro-phenyl]-(4-hydroxy-phenoxycarbonyl)-amino]-acetic acid], for which the EC50 (as a rule, the concentration needed to bring the measured effect to its halfway point) turned out to be 23.3 nM on TR-α and 6.2 nM at TR-β.

Take `CC(C)(C)c1cc(Oc2c(Cl)cc(N(CC(=O)O)CC(=O)O)cc2Cl)ccc1O` [Example 34, {[4-(3-tert-Butyl-4-hydroxy-phenoxy)-3,5-dichloro-phenyl]-carboxymethyl-amino}-acetic acid]: the “TR-α Fold Induction w.r.t T3(100 nm)” value on TR-α (Conc. 1 nM) came out at 12.66; on TR-α (Conc. 10 nM) it was 26.23; at TR-α (Conc. 100 nM), 62.95; on TR-α (Conc. 1000 nM) it was 53.76. Also, the fold induction at 0.001 µM on TR-β was 8.37. Further, the fold induction at 0.01 µM on TR-β was 21.3. On TR-β, the fold induction at 0.1 µM stood at 51.1. Moreover, on TR-β, the fold induction at 1 µM was 55.7.

As for `CCOC(=O)N(CC(=O)O)c1cc(C)c(Oc2ccc(O)c(C(C)CC)c2)c(C)c1` (stereo not shown) [Example 18, {[4-(3-sec-Butyl-4-hydroxy-phenoxy)-3,5-dimethyl-phenyl]-ethoxycarbonyl-amino}-acetic acid], the “TR-α Fold Induction w.r.t T3(100 nm)” value at TR-α (Conc. 1 nM) amounted to 6.62. For the same compound, on TR-α (Conc. 10 nM), the “TR-α Fold Induction w.r.t T3(100 nm)” value worked out at 8.90. The “TR-α Fold Induction w.r.t T3(100 nm)” value on TR-α (Conc. 100 nM) stood at 12.97. On TR-α (Conc. 1000 nM), the “TR-α Fold Induction w.r.t T3(100 nm)” value is given as 16.87. Besides, on TR-β, the fold induction at 0.001 µM was 9.44, the fold induction at 0.01 µM is 18.6, the fold induction at 0.1 µM is 23 and the fold induction at 1 µM was determined as 42.6.
